Reference: article PMC4890880 (ACS infectious diseases, 2016)

System: HepG2-A16-CD81EGFP cells
Assay: cells
Conditions: Homo sapiens, HepG2, read-out: HepG2 Tox% @ 50 uM rep1

Row | Structure (SMILES) | cytotoxicity at 50 µM [%]
1 | COc1cc(C(=O)ON=C(N)Cc2cccc3ccccc23)cc(OC)c1OC [MMV666687] | 100
2 | Cc1cc(C=C2SC(=Nc3ccccc3)N(C3CCCC3)C2=O)c(C)n1-c1ccc(Cl)cc1 [MMV666688] | -4.47
3 | COc1ccc(Nc2nc(NN=Cc3ccc(O)cc3)nc(Nc3ccc([N+](=O)[O-])cc3)n2)cc1 [MMV666689] | 97
4 | COc1ccc(CCn2c(=N)c(C(=O)NCc3cccnc3)cc3c(=O)n4cccc(C)c4nc32)cc1 [MMV667488] | -0.0644
5 | COc1ccc(C2c3ccc4ccccc4c3Oc3ncn(CCCn4ccnc4)c(=N)c32)cc1OC (stereo not drawn) [MMV667490] | 102
6 | COc1ccc(C2c3ccc4ccccc4c3Oc3ncn(CCCN(C)C)c(=N)c32)cc1 (stereo not drawn) [MMV667491] | 99
7 | CN(N=O)C1=C(NC2CCCCC2)C(=O)c2ccccc2C1=O [MMV667492] | 98

Same assay, conditions: Homo sapiens, HepG2, read-out: HepG2 Tox% @ 50 uM rep2

Row | Structure (SMILES) | cytotoxicity at 50 µM [%]
8 | Cc1cc(C=C2SC(=Nc3ccccc3)N(C3CCCC3)C2=O)c(C)n1-c1ccc(Cl)cc1 [MMV666688] | -11

Same assay, conditions: Homo sapiens, HepG2, read-out: Tox IC50

Row | Structure (SMILES) | IC50 [µM]
9 | COc1cc(C(=O)ON=C(N)Cc2cccc3ccccc23)cc(OC)c1OC [MMV666687] | 17.1
10 | COc1ccc(Nc2nc(NN=Cc3ccc(O)cc3)nc(Nc3ccc([N+](=O)[O-])cc3)n2)cc1 [MMV666689] | 46.8
11 | COc1ccc(C2c3ccc4ccccc4c3Oc3ncn(CCCN(C)C)c(=N)c32)cc1 (stereo not drawn) [MMV667491] | 10.7

Same assay, conditions: Homo sapiens, HepG2, read-out: Tox max inhibition (%) @ 50 uM

Row | Structure (SMILES) | inhibition at 50 µM [%]
12 | COc1cc(C(=O)ON=C(N)Cc2cccc3ccccc23)cc(OC)c1OC [MMV666687] | 100
13 | COc1ccc(Nc2nc(NN=Cc3ccc(O)cc3)nc(Nc3ccc([N+](=O)[O-])cc3)n2)cc1 [MMV666689] | 73
14 | COc1ccc(C2c3ccc4ccccc4c3Oc3ncn(CCCN(C)C)c(=N)c32)cc1 (stereo not drawn) [MMV667491] | 93

System: Plasmodium berghei (Pb-Luc) exoerythrocytic-stage parasites
Assay: microbe, parasite or virus in culture
Conditions: read-out: Inhibition% @ 50 uM rep1

Row | Structure (SMILES) | inhibition at 50 µM [%]
15 | COc1cc(C(=O)ON=C(N)Cc2cccc3ccccc23)cc(OC)c1OC [MMV666687] | 102
16 | Cc1cc(C=C2SC(=Nc3ccccc3)N(C3CCCC3)C2=O)c(C)n1-c1ccc(Cl)cc1 [MMV666688] | 14
17 | COc1ccc(Nc2nc(NN=Cc3ccc(O)cc3)nc(Nc3ccc([N+](=O)[O-])cc3)n2)cc1 [MMV666689] | 98
18 | COc1ccc(CCn2c(=N)c(C(=O)NCc3cccnc3)cc3c(=O)n4cccc(C)c4nc32)cc1 [MMV667488] | 81
19 | COc1ccc(C2c3ccc4ccccc4c3Oc3ncn(CCCn4ccnc4)c(=N)c32)cc1OC (stereo not drawn) [MMV667490] | 104
20 | COc1ccc(C2c3ccc4ccccc4c3Oc3ncn(CCCN(C)C)c(=N)c32)cc1 (stereo not drawn) [MMV667491] | 103
21 | CN(N=O)C1=C(NC2CCCCC2)C(=O)c2ccccc2C1=O [MMV667492] | 103

Same assay, conditions: read-out: Inhibition% @ 50 uM rep2

Row | Structure (SMILES) | inhibition at 50 µM [%]
22 | COc1cc(C(=O)ON=C(N)Cc2cccc3ccccc23)cc(OC)c1OC [MMV666687] | 103
23 | Cc1cc(C=C2SC(=Nc3ccccc3)N(C3CCCC3)C2=O)c(C)n1-c1ccc(Cl)cc1 [MMV666688] | 0.839
24 | COc1ccc(Nc2nc(NN=Cc3ccc(O)cc3)nc(Nc3ccc([N+](=O)[O-])cc3)n2)cc1 [MMV666689] | 98
25 | COc1ccc(CCn2c(=N)c(C(=O)NCc3cccnc3)cc3c(=O)n4cccc(C)c4nc32)cc1 [MMV667488] | 83
26 | COc1ccc(C2c3ccc4ccccc4c3Oc3ncn(CCCn4ccnc4)c(=N)c32)cc1OC (stereo not drawn) [MMV667490] | 104
27 | COc1ccc(C2c3ccc4ccccc4c3Oc3ncn(CCCN(C)C)c(=N)c32)cc1 (stereo not drawn) [MMV667491] | 103
28 | CN(N=O)C1=C(NC2CCCCC2)C(=O)c2ccccc2C1=O [MMV667492] | 104

Same assay, conditions: read-out: PbLuc IC50, dose response, 1/3 dilutions, max conc. 10 or 50 uM, unit inferred

Row | Structure (SMILES) | IC50 [µM]
29 | COc1cc(C(=O)ON=C(N)Cc2cccc3ccccc23)cc(OC)c1OC [MMV666687] | 12.6
30 | COc1ccc(Nc2nc(NN=Cc3ccc(O)cc3)nc(Nc3ccc([N+](=O)[O-])cc3)n2)cc1 [MMV666689] | 15.9
31 | COc1ccc(C2c3ccc4ccccc4c3Oc3ncn(CCCN(C)C)c(=N)c32)cc1 (stereo not drawn) [MMV667491] | 4

Same assay, conditions: read-out: PbLuc max inhibition (%) @ 50 uM

Row | Structure (SMILES) | inhibition at 50 µM [%]
32 | COc1cc(C(=O)ON=C(N)Cc2cccc3ccccc23)cc(OC)c1OC [MMV666687] | 100
33 | COc1ccc(Nc2nc(NN=Cc3ccc(O)cc3)nc(Nc3ccc([N+](=O)[O-])cc3)n2)cc1 [MMV666689] | 95
34 | COc1ccc(C2c3ccc4ccccc4c3Oc3ncn(CCCN(C)C)c(=N)c32)cc1 (stereo not drawn) [MMV667491] | 94

System: HepG2-A16-CD81EGFP cells
Assay: not given
Conditions: 2nd round; maximal inhibition in dose series

Row | Structure (SMILES) | Tox_max_inhibition (%)
35 | COc1ccccc1CN1C[C@@H](C)[C@H](OC)CN(C)C(=O)c2ccc(NC(=O)Nc3ccccc3OC)cc2OC[C@H]1C [BRD-K01898236-001-01-5] | 9

Same assay, conditions: read-out: Tox_IC50; 2nd round; HepG2 cytotoxicity; unit inferred

Row | Structure (SMILES) | IC50 [µM]
36 | COc1ccccc1CN1C[C@@H](C)[C@H](OC)CN(C)C(=O)c2ccc(NC(=O)Nc3ccccc3OC)cc2OC[C@H]1C [BRD-K01898236-001-01-5] | > 10

Same assay, conditions: read-out: Tox_IC50; sheet 2nd round; HepG2 cytotoxicity

Row | Structure (SMILES) | IC50 [µM]
37 | CO[C@@H]1CN(C)C(=O)c2ccc(NC(=O)Nc3ccccc3F)cc2OC[C@@H](C)N(Cc2ccccc2F)C[C@H]1C [BRD-K00229958-001-01-0] | > 10
38 | COc1ccc2c3c([nH]c2c1)[C@H](CO)N(C(C)=O)CC31CN(Cc2ccccc2Cl)C1 [BRD-K02242562-001-01-9] | > 10
39 | CCCN1C[C@H](C)[C@@H](OC)CN(C)C(=O)c2cc(NC(=O)Nc3cccc(F)c3)ccc2OC[C@H]1C [BRD-K02315086-001-01-0] | > 10
40 | COc1ccc(S(=O)(=O)Nc2ccc3c(c2)C(=O)N([C@H](C)CO)C[C@@H](C)[C@H](CN(C)Cc2ccc(C(F)(F)F)cc2)OCCCC[C@@H](C)O3)cc1 [BRD-K02689416-001-01-9] | > 10
41 | COc1cccc(-c2cccc(-c3nc(C(=O)NCc4ccc(Oc5ccccc5)cc4)cc4c3[C@@H](CCO)N([S+]([O-])C(C)(C)C)C4)c2)c1 (stereo partly drawn) [BRD-K03403405-001-03-3] | > 10
42 | COc1ccc(C#Cc2ccc3c(c2)O[C@@H](CN(C)C(=O)Nc2cccc(OC)c2)[C@@H](C)CN([C@H](C)CO)S3(=O)=O)cc1 [BRD-K04089243-001-01-9] | > 10
43 | C[C@@H]1CN([C@H](C)CO)C(=O)c2c(c3ccccc3n2C)-c2ccccc2CO[C@@H]1CN(C)S(=O)(=O)c1ccc([N+](=O)[O-])cc1 [BRD-K04605557-001-01-2] | > 10

Same assay, conditions: read-out: Tox_IC50; sheet "2nd round", HepG2 cytotoxicity

Row | Structure (SMILES) | IC50 [µM]
44 | COc1cccc(S(=O)(=O)N2CCCCN3[C@@H](CO)[C@@H](c4ccc(C#CCC(C)C)cc4)[C@@H]3C2)c1 [BRD-K03006541-001-01-3] | > 10
45 | CS(=O)(=O)N1[C@H](C#N)[C@H](c2ccc(C#Cc3cccc(F)c3)cc2)[C@H]1CO [BRD-K05470326-001-01-0] | > 10
46 | C[C@@H]1CCCCO[C@H](CN(C)S(=O)(=O)c2ccccc2)[C@@H](C)CN([C@H](C)CO)C(=O)c2cc(NC(=O)Nc3ccc4c(c3)OCO4)ccc2O1 [BRD-K06373569-001-01-1] | > 10
47 | COc1ccc2c3c(n(C)c2c1)[C@@H](CO)N(Cc1ccc2c(c1)OCO2)CC31CN(C(=O)c2ccc3c(c2)OCO3)C1 [BRD-K07064121-001-01-6] | > 10
48 | COc1ccc2c3c([nH]c2c1)[C@H](CO)N(C(C)=O)CC31CCN(C(=O)Nc2ccc(F)cc2F)CC1 [BRD-K07378992-001-01-6] | > 10

Same assay, conditions: sheet 2nd round; maximal inhibition in dose response

Row | Structure (SMILES) | Tox_max_inhibition (%)
49 | CO[C@@H]1CN(C)C(=O)c2ccc(NC(=O)Nc3ccccc3F)cc2OC[C@@H](C)N(Cc2ccccc2F)C[C@H]1C [BRD-K00229958-001-01-0] | 7
50 | COc1ccc2c3c([nH]c2c1)[C@H](CO)N(C(C)=O)CC31CN(Cc2ccccc2Cl)C1 [BRD-K02242562-001-01-9] | 3.51
51 | CCCN1C[C@H](C)[C@@H](OC)CN(C)C(=O)c2cc(NC(=O)Nc3cccc(F)c3)ccc2OC[C@H]1C [BRD-K02315086-001-01-0] | 10
52 | COc1ccc(S(=O)(=O)Nc2ccc3c(c2)C(=O)N([C@H](C)CO)C[C@@H](C)[C@H](CN(C)Cc2ccc(C(F)(F)F)cc2)OCCCC[C@@H](C)O3)cc1 [BRD-K02689416-001-01-9] | 12
53 | COc1cccc(-c2cccc(-c3nc(C(=O)NCc4ccc(Oc5ccccc5)cc4)cc4c3[C@@H](CCO)N([S+]([O-])C(C)(C)C)C4)c2)c1 (stereo partly drawn) [BRD-K03403405-001-03-3] | 6
54 | COc1ccc(C#Cc2ccc3c(c2)O[C@@H](CN(C)C(=O)Nc2cccc(OC)c2)[C@@H](C)CN([C@H](C)CO)S3(=O)=O)cc1 [BRD-K04089243-001-01-9] | 2.28
55 | C[C@@H]1CN([C@H](C)CO)C(=O)c2c(c3ccccc3n2C)-c2ccccc2CO[C@@H]1CN(C)S(=O)(=O)c1ccc([N+](=O)[O-])cc1 [BRD-K04605557-001-01-2] | 13

Same assay, conditions: sheet "2nd round"

Row | Structure (SMILES) | Tox_max_inhibition (%)
56 | COc1cccc(S(=O)(=O)N2CCCCN3[C@@H](CO)[C@@H](c4ccc(C#CCC(C)C)cc4)[C@@H]3C2)c1 [BRD-K03006541-001-01-3] | 5
57 | CS(=O)(=O)N1[C@H](C#N)[C@H](c2ccc(C#Cc3cccc(F)c3)cc2)[C@H]1CO [BRD-K05470326-001-01-0] | 10
58 | C[C@@H]1CCCCO[C@H](CN(C)S(=O)(=O)c2ccccc2)[C@@H](C)CN([C@H](C)CO)C(=O)c2cc(NC(=O)Nc3ccc4c(c3)OCO4)ccc2O1 [BRD-K06373569-001-01-1] | 14
59 | COc1ccc2c3c(n(C)c2c1)[C@@H](CO)N(Cc1ccc2c(c1)OCO2)CC31CN(C(=O)c2ccc3c(c2)OCO3)C1 [BRD-K07064121-001-01-6] | 18
60 | COc1ccc2c3c([nH]c2c1)[C@H](CO)N(C(C)=O)CC31CCN(C(=O)Nc2ccc(F)cc2F)CC1 [BRD-K07378992-001-01-6] | 7
